One data set concerns RSV A2. In words: RSV plaque reduction assay. Conditions: Hep-G2 cells, RSV A2, 2 days, mean of at least two experiments. The data set is classed as cell-based, RSV (RSV A2 ECACC, 0709161v). As for the experimental part:
Compounds were subjected to RSV plaque reduction assays according to the following protocol.
Hep-G2 cells (ECACC, 85011430) were passaged in flasks and seeded in 24-well plates in DMEM containing antibiotics and supplemented with 10% FBS. During inoculation and subsequent incubation, cells were cultured in DMEM containing 2% FBS. 100 plaque forming unit/well of RSV (RSV A2 ECACC, 0709161v) was mixed with eight serial dilutions of compound. Subsequently, 100 µL of the virus/compound mixtures was added to confluent Hep-G2 cell monolayers. The cells and virus/compound mixtures were incubated at 37° C. in a humidified 5% CO2 incubator for 2 h prior to removal of the inoculum and addition of 1 mL of overlay (DMEM containing 2% FBS and 0.8% CMC) containing compound dilutions. The cells and were incubated at 37° C. in a humidified 5% CO2 incubator for 2 days.
Cells were washed with PBS before adding 75%/25% v/v EtOH/MeOH, for 3 min. Fix ative was removed and plates were washed with PBS. A pre-titrated amount of the primary antibody was added in 200 µL PBS/2% milk powder, and plates incubated for 90 min at 37° C. The plates were washed 3 times with PBS/0.05% Tween20 before addition of rabbit anti-goat horse radish peroxidase in 200 µL PBS/2% milk powder, and incubated for 1 h at 37° C. Following three wash steps with PBS/0.05% Tween20, 200 µL ready-to-use TrueBlue was added and plates were incubated at rt for 10-15 min before washing with water. After removal of water, plates were air-dried in the dark.
(§1) Plates were scanned and analysed using the Immunospot S6 Macro analyser, which is equipped with BioSpot analysis software for counting immunostained plaques (virospots). Plaque counts were used to calculate % infection relative to the mean of the plaque count in the virus control wells for RSV. […] Plaque EC50 and cell toxicity CC50 values are a mean of at least two experiments and figures are rounded to whole units.
A general note: Plaques are areas of infected cells; plaque reduction assays count them against a control.

For another data set, the system named is Hep-G2 cells. In words: Cell cytotoxicity CC50. To be noted: mean of at least two experiments. The data set is classed as cell-based.
Source text: as §1

The nature of a further data set: Cell cytotoxicity CC50. The data set is classed as cell-based. Conditions: human; mean of at least two experiments.
Source text: as §1

Setting [1] is: human respiratory syncytial virus, HepG2, 48 h.

Some results are limits rather than exact numbers.

Regarding `CC1CCCn2nc(-c3ccc(F)cc3F)c(C(=O)N[C@H]3N=C(c4ccccc4)c4cccc(F)c4NC3=O)c2O1` (single isomer, unassigned) [Example 17-2, (5S*)-2-(2,4-difluorophenyl)-N-[(3S)-9-fluoro-2-oxo-5-phenyl-1,3-dihydro-1,4-benzodiazepin-3-yl]-5-methyl-5,6,7,8-tetrahydropyrazolo[5,1-b][1,3]oxazepine-3-carboxamide], in the data set on RSV A2, the EC50 – broadly, the concentration giving half of the maximal effect – is 20 nM. Moreover, the cytotoxic concentration (CC50) (in general, the concentration that lowers cell viability or growth by half) in the data set with Hep-G2 cells is greater than 25000 nM.
`CCNc1ccc(-c2nn3c(c2C(=O)N[C@H]2N=C(c4ccccc4)c4ccccc4NC2=O)OC(C)CCC3)c(F)n1` (single isomer, unassigned) [Example 10-2, (5S*)-2-[6-(ethylamino)-2-fluoropyridin-3-yl]-5-methyl-N-[(3S)-2-oxo-5-phenyl-1,3-dihydro-1,4-benzodiazepin-3-yl]-5,6,7,8-tetrahydropyrazolo[5,1-b][1,3]oxazepine-3-carboxamide] gave an EC50 in the data set with RSV A2 of 24 nM. This compound also returned a CC50 with Hep-G2 cells greater than 25000 nM.
The corresponding values for `CC1CCCOc2c(C(=O)NC3N=C(c4ccccc4)c4ccccc4NC3=O)c(-c3ccccc3F)nn21` (single isomer, unassigned) [Example 14-2, (8S*)-2-(2-Fluorophenyl)-8-methyl-N-(2-oxo-5-phenyl-1,3-dihydro-1,4-benzodiazepin-3-yl)-5,6,7,8-tetrahydropyrazolo[5,1-b][1,3]oxazepine-3-carboxamide] are 60 nM and greater than 25000 nM.
`CCC1CCCn2nc(-c3ccc(C)nc3)c(C(=O)N[C@H]3N=C(c4ccccc4)c4cccc(F)c4NC3=O)c2O1` (single isomer, unassigned) [Example 27-2, (5S*)-5-ethyl-N-[(3S)-9-fluoro-2-oxo-5-phenyl-2,3-dihydro-1H-1,4-benzodiazepin-3-yl]-2-(6-methylpyridin-3-yl)-5H,6H,7H,8H-pyrazolo[3,2-b][1,3]oxazepine-3-carboxamide] registered an EC50 in the data set on RSV A2 of 259 nM. Also, in the data set with Hep-G2 cells, the 50% cytotoxic concentration (CC50) was greater than 25000 nM.
`CC1CCCOc2c(C(=O)N[C@H]3N=C(c4ccccc4)c4ccccc4NC3=O)c(-c3ccccc3F)nn21` (stereo partly drawn) [Example 14, 2-(2-Fluorophenyl)-8-methyl-N-[(3S)-2-oxo-5-phenyl-1,3-dihydro-1,4-benzodiazepin-3-yl]-5,6,7,8-tetrahydropyrazolo[5,1-b][1,3]oxazepine-3-carboxamide] gave an EC50 in the data set on RSV A2 (setting [1]) of 67 nM. The compound further registered a CC50 in the data set “Cell cytotoxicity CC50” greater than 25000 nM.
The corresponding values for `CCNc1ccc(-c2nn3c(c2C(=O)N[C@H]2N=C(c4ccccc4)c4cccc(F)c4NC2=O)O[C@H](C)CCC3)c(F)n1` (single isomer, unassigned) [Example 11-1] are 22 nM and greater than 25000 nM.
The corresponding values for `CCc1ccc(-c2nn3c(c2C(=O)N[C@H]2N=C(c4ccccc4)c4cccc(F)c4NC2=O)OCC(F)(F)CC3)cn1` [Example 22, 2-(6-Ethylpyridin-3-yl)-6,6-difluoro-N-[(3S)-9-fluoro-2-oxo-5-phenyl-2,3-dihydro-1H-1,4-benzodiazepin-3-yl]-5H,6H,7H,8H-pyrazolo[3,2-b][1,3]oxazepine-3-carboxamide] are 103 nM and greater than 25000 nM.
The corresponding values for `CCC1CCCn2nc(-c3ccccc3F)c(C(=O)N[C@H]3N=C(c4ccccc4)c4cccc(F)c4NC3=O)c2O1` (single isomer, unassigned) [Example 25-1, (5R*)-5-ethyl-2-(2-fluorophenyl)-N-[(3S)-9-fluoro-2-oxo-5-phenyl-1,3-dihydro-1,4-benzodiazepin-3-yl]-5,6,7,8-tetrahydropyrazolo[5,1-b][1,3]oxazepine-3-carboxamide] are 93 nM and greater than 25000 nM.
In the data set with RSV A2 (setting [1]), `CCC1CCCn2nc(-c3ccccc3F)c(C(=O)N[C@H]3N=C(c4ccccc4)c4ccccc4NC3=O)c2O1` (stereo partly drawn) [Example 24, 5-Ethyl-2-(2-fluorophenyl)-N-[(3S)-2-oxo-5-phenyl-1,3-dihydro-1,4-benzodiazepin-3-yl]-5,6,7,8-tetrahydropyrazolo[5,1-b][1,3]oxazepine-3-carboxamide] came in with a concentration for a half-maximal effect (EC50) of 100 nM. Besides, the CC50 in “Cell cytotoxicity CC50” is greater than 25000 nM.
`CC1CCCn2nc(-c3ccc(F)cc3F)c(C(=O)N[C@H]3N=C(c4ccccc4)c4cccc(F)c4NC3=O)c2O1` (single isomer, unassigned) [Example 17-1, (5R*)-2-(2,4-difluorophenyl)-N-[(3 S)-9-fluoro-2-oxo-5-phenyl-1,3-dihydro-1,4-benzodiazepin-3-yl]-5-methyl-5,6,7,8-tetrahydropyrazolo[5,1-b][1,3]oxazepine-3-carboxamide]: the EC50 in the data set with RSV A2 (setting [1]) is 19 nM. Besides, the CC50 in the data set “Cell cytotoxicity CC50” was greater than 25000 nM.
The corresponding values for `CCC1CCCn2nc(-c3ccc(C)nc3)c(C(=O)N[C@H]3N=C(c4ccccc4)c4cccc(F)c4NC3=O)c2O1` (some centres unmarked) [Example 27, 5-Ethyl-N-[(3 S)-9-fluoro-2-oxo-5-phenyl-1,3-dihydro-1,4-benzodiazepin-3-yl]-2-(6-methylpyridin-3-yl)-5,6,7,8-tetrahydropyrazolo[5,1-b][1,3]oxazepine-3-carboxamide] are 394 nM and greater than 25000 nM.
In the case of `O=C(N[C@H]1N=C(c2ccccc2)c2cccc(F)c2NC1=O)c1c(-c2ccccc2)nn2c1OCCCC2` [Example 8, N-[(3S)-9-Fluoro-2-oxo-5-phenyl-1,3-dihydro-1,4-benzodiazepin-3-yl]-2-phenyl-5,6,7,8-tetrahydropyrazolo[5,1-b][1,3]oxazepine-3-carboxamide], in the data set with RSV A2 (setting [1]), the 50% effective concentration (EC50) came to 59 nM. The CC50 in “Cell cytotoxicity CC50” was greater than 16700 nM.
`CCC1CCCn2nc(-c3ccc(C)nc3)c(C(=O)N[C@H]3N=C(c4ccccc4)c4ccccc4NC3=O)c2O1` (stereo partly drawn) [Example 26, 5-Ethyl-2-(6-methylpyridin-3-yl)-N-[(3S)-2-oxo-5-phenyl-1,3-dihydro-1,4-benzodiazepin-3-yl]-5,6,7,8-tetrahydropyrazolo[5,1-b][1,3]oxazepine-3-carboxamide]: the response with RSV A2 (setting [1]) was half-maximal at 590 nM (EC50). The CC50 in the data set “Cell cytotoxicity CC50” is greater than 25000 nM.
The corresponding values for `Cc1cncc(-c2nn3c(c2C(=O)N[C@H]2N=C(c4ccccc4)c4ccccc4NC2=O)OCCCC3)c1` [Example 3, 2-(5-Methylpyridin-3-yl)-N-[(3S)-2-oxo-5-phenyl-1,3-dihydro-1,4-benzodiazepin-3-yl]-5,6,7,8-tetrahydropyrazolo[5,1-b][1,3]oxazepine-3-carboxamide] are 256 nM and greater than 25000 nM.
For `CCNc1ccc(-c2nn3c(c2C(=O)N[C@H]2N=C(c4ccccc4)c4ccccc4NC2=O)OC(C)CCC3)c(F)n1` (stereo partly drawn) [Example 10, 2-[6-(Ethylamino)-2-fluoropyridin-3-yl]-5-methyl-N-[(3S)-2-oxo-5-phenyl-1,3-dihydro-1,4-benzodiazepin-3-yl]-5,6,7,8-tetrahydropyrazolo[5,1-b][1,3]oxazepine-3-carboxamide], in the data set on RSV A2 (setting [1]), the EC50 was found to be 31 nM. This compound also gave a CC50 in “Cell cytotoxicity CC50” greater than 25000 nM.
As to `CCc1ccc(-c2nn3c(c2C(=O)N[C@H]2N=C(c4ccccc4)c4cccc(F)c4NC2=O)O[C@H]2CC[C@@H]3C2)cn1` (single isomer, unassigned) [Example 30-2, (1R*,8S*)-4-(6-ethylpyridin-3-yl)-N-[(3S)-9-fluoro-2-oxo-5-phenyl-2,3-dihydro-1H-1,4-benzodiazepin-3-yl]-7-oxa-2,3-diazatricyclo[6.2.1.02,6]undeca-3,5-diene-5-carboxamide], the half-maximal effective concentration (EC50) in the data set on RSV A2 (setting [1]) came out at 63 nM. In “Cell cytotoxicity CC50”, this compound came in with a CC50 greater than 25000 nM.

The values above are taken from patent US20230365585A1, “BENZODIAZEPINE DERIVATIVES USEFUL IN TREATING A RESPIRATORY SYNCYTIAL VIRUS INFECTION” (priority 2020, published 2023).
